Results as given in patent publication US10028992B2, “Methods of treating muscular dystrophy” (BOARD OF REGENTS OF THE NEVADA SYSTEM OF HIGHER EDUCATION …, priority 2012, dated 2018).

System: α7 integrin promoter
Assay: muscle cell-based assay: α7βgal+/− myoblasts/myotubes, LacZ reporter, β-galactosidase cleavage of FDG
Parameters: species or system mouse; Results in α7+/− β-galactosidase assay: scale not given here
Details: for Results in a α7+/− β-galactosidase assay, Myotubes, 0.5 uM: compound at 0.5 uM; for Results in a α7+/− β-galactosidase assay, Myotubes, 1 uM: compound at 1 uM; for Results in a α7+/− β-galactosidase assay, Myotubes, 5 uM: compound at 5 uM; for Results in a α7+/− β-galactosidase assay, Myotubes, 10 uM: compound at 10 uM; for Results in a α7+/− β-galactosidase assay, Myotubes, 20 uM: compound at 20 uM; for Results in a α7+/− β-galactosidase assay, Myotubes, 40 uM: compound at 40 uM; for AC50: log of AC50, given with negative sign, unit of AC50 not given, read-out: Fit Log AC50 (converted); for Fit Curve Class: key not given; for EC50: given as log AC50 (negative values), read-out: Fit LogAC50 (converted)
Description: An α7 integrin null mouse was produced in which exon 1 of the gene encoding the α7 integrin was replaced by the LacZ reporter. In these mice, all the transcriptional regulatory elements of the α7 integrin promoter were retained, allowing β-galactosidase to report expression of 7 integrin. A primary myoblast cell line (designated α7βgal^+/−) isolated from 10 day old α7^+/− pups were analyzed for the ability of β-galactosidase to report α7 integrin expression. α7βgal^+/− myoblasts were differentiated and subjected to X-gal staining and western analysis (FIGS. 1A and 1B).
The activity of the α7 integrin promoter was measured by β-galactosidase cleavage of the non-fluorescent compound fluorescein di-β-D-galactopyranoside (FDG) to fluorescein. This assay was used to screen compound libraries to identify molecules that up-regulate α7 integrin expression in muscle.
Also evaluated was the effect of various isoforms of laminin and the ligand for α7β1 integrin on integrin expression. Positive hits were subjected to dose-response analysis, western analysis and a myostatin counterscreen (a negative regulator of muscle growth).

[1] = Table 12, fitted activity at zero concentration
[2] = Table 12 Compound data, concentration-response curve fit
[3] = curve fit, activity at zero concentration

Row | Structure (SMILES) | Results in α7+/− β-galactosidase assay (Myoblasts, 0.5 uM) | Results in α7+/− β-galactosidase assay (Myoblasts, 1 uM) | Results in α7+/− β-galactosidase assay (Myoblasts, 5 uM) | Results in α7+/− β-galactosidase assay (Myoblasts, 10 uM) | Results in α7+/− β-galactosidase assay (Myoblasts, 20 uM) | Results in α7+/− β-galactosidase assay (Myoblasts, 40 uM) | Results in a α7+/− β-galactosidase assay, Myotubes, 0.5 uM (Myotubes) | Results in a α7+/− β-galactosidase assay, Myotubes, 1 uM (Myotubes) | Results in a α7+/− β-galactosidase assay, Myotubes, 5 uM (Myotubes) | Results in a α7+/− β-galactosidase assay, Myotubes, 10 uM (Myotubes) | Results in a α7+/− β-galactosidase assay, Myotubes, 20 uM (Myotubes) | Results in a α7+/− β-galactosidase assay, Myotubes, 40 uM (Myotubes) | also measured
1 | Cc1nc(O)nc(O)c1S(=O)(=O)Nc1ccc(F)cc1Cl [drawing 545] | 0.03945 | 0.1557 | 0.0782 | −0.00196 | 0.02136 | −0.01244 | – | – | – | – | – | – | –
2 | Cc1ccccc1-n1c(S)nnc1Cc1cccs1 [drawing 520] | 0.09422 | 0.03188 | 0.1364 | 0.3732 | 0.1056 | 0.01115 | – | – | – | – | – | – | –
3 | Cc1ccc(/C=C2\C(=O)Nc3ccccc32)o1 [drawing 356] | – | – | – | – | – | – | 0.09656 | −0.02249 | −0.1043 | −0.06876 | −0.2369 | −0.336 | –
4 | CC(C)(C)c1ccc(C(=O)OCC(=O)Nc2sc3c(c2C#N)CCC3)cc1 [Compound 85] | – | – | – | – | – | – | – | – | – | – | – | – | AC50 (Mus musculus, Table 12): 5.01 µM; Fit HillSlope (Table 12, curve fit): 1.8617; Fit Zero Activity [%] [1]: 3.2331%; Fit Curve Class (Table 12): 2.1; Score [2]: 44
5 | N=C(NOC(=O)c1cccc(C(F)(F)F)c1)c1cnccn1 [drawing 369] | – | – | – | – | – | – | 0.07542 | 0.07664 | −0.08801 | −0.1676 | −0.1858 | −0.1541 | –
6 | Cc1ccc2c(c1)/C(=C/c1ccco1)C(=O)N2 [drawing 488] | – | – | – | – | – | – | −0.00427 | −0.00615 | 0.07579 | −0.3334 | 0.0134 | −0.2855 | –
7 | CCOC(=O)c1cc(C(=O)OCC)c(SCc2ccccc2)nc1O [drawing 624] | −0.1519 | −0.22 | 0.001928 | −0.1374 | −0.174 | −0.1694 | – | – | – | – | – | – | –
8 | CCOC(=O)C1=C(NC(=O)c2ccc(OC)c(S(=O)(=O)N3CCCCC3C)c2)Nc2ccccc2N=C1CC (stereo not shown) [drawing 637] | 0.1194 | 0.007377 | −0.06112 | −0.01618 | −0.4913 | −0.6556 | – | – | – | – | – | – | –
9 | Cc1cccc(Sc2nc(-c3ccccc3)ccc2C#N)c1 [drawing 390] | – | – | – | – | – | – | −0.06701 | −0.1813 | 0.02472 | 0.2322 | −0.3206 | −0.2803 | –
10 | CCCCN1CC(=O)N2Cc3[nH]c4ccccc4c3C[C@H]2C1=O [drawing 686] | 0.1518 | 0.2222 | −0.00341 | −0.04523 | 0.1761 | 0.2299 | – | – | – | – | – | – | –
11 | N#C/C(=C1/C(=O)Nc2ccc(Br)cc21)c1ccccn1 [drawing 359] | – | – | – | – | – | – | 0.2651 | 0.03214 | −0.1525 | −0.1528 | −0.2624 | −0.2931 | –
12 | NC(=O)c1sc2nc3c(cc2c1N)CCC3 [drawing 608] | 0.003482 | 0.04559 | 0.02429 | 0.07579 | 0.3169 | 0.4925 | – | – | – | – | – | – | –
13 | O=c1[nH]c(CN2CCCCC2)cc2c1C1(CCCCC1)Cc1ccccc1-2 [drawing 565] | 0.03731 | −0.01272 | −0.01947 | −0.1479 | 0.1068 | −0.1465 | – | – | – | – | – | – | –
14 | O=C(NCCc1ccccc1)C1CCC(=O)N1C1CCCC1 (stereo not shown) [Compound 104] | – | – | – | – | – | – | – | – | – | – | – | – | AC50 (Mus musculus, Table 12): 10 µM; Fit HillSlope (Table 12, curve fit): 3.6772; Fit Zero Activity [%] [1]: −9.1182%; Fit Curve Class (Table 12): 2.1; Score [2]: 43
15 | O=Cc1ccc(C(=O)OCC(=O)N2CCCC2)cc1 [Compound 35] | – | – | – | – | – | – | – | – | – | – | – | – | Activity at 0.307 μM [%] ** (0.307 μM): 0%; AC50 (Mus musculus, Table 12): 2.51 µM; Emax (Mus musculus, read-out: Max Response [%]): 71.8%; Fit HillSlope (Table 12, curve fit): 3.132; Fit Zero Activity [%] [1]: −0.1751%; Fit Curve Class (Table 12): 1.2; Score [2]: 64
16 | CCOc1ccc(Br)cc1S(=O)(=O)Nc1ccc(C(=O)Nc2ccccc2OC)cc1 [drawing 451] | – | – | – | – | – | – | 0.1091 | 0.02499 | −0.02123 | −0.1229 | −0.2419 | −0.2407 | –
17 | O=C1Nc2ccccc2/C1=C1/Nc2ccccc2/C1=N\O [drawing 726] | – | – | – | – | – | – | – | – | – | – | – | – | Result in α7+/− β-galactosidase assay (Myoblasts, 0.5 uM): 0.07252; Result in α7+/− β-galactosidase assay (Myoblasts, 1 uM): 0.1204; Result in α7+/− β-galactosidase assay (Myoblasts, 5 uM): −0.1537; Result in α7+/− β-galactosidase assay (Myoblasts, 10 uM): −0.432; Result in α7+/− β-galactosidase assay (Myoblasts, 20 uM): −0.6932; Result in α7+/− β-galactosidase assay (Myoblasts, 40 uM): −0.758
18 | Cc1ccc(NS(=O)(=O)c2ccc(-c3ccc(O)nn3)o2)c(C)c1 [drawing 685] | 0.09197 | 0.1114 | −0.00204 | −0.06144 | 0.2389 | 0.2674 | – | – | – | – | – | – | –
19 | Cc1ccc(NC(=O)COc2ccccc2CNC(C)(C)CC(C)(C)C)cc1 [Compound 131] | – | – | – | – | – | – | – | – | – | – | – | – | EC50 (Mus musculus): 14.1 µM; Score (Table 12 compound data): 43; Fit Curve Class (curve class number): 2.1; Fit HillSlope (curve fit): 4.9549; Fit Zero Activity [%] [3]: 8.7591%
20 | CCNC(=O)CSc1nc(-c2ccc(F)cc2)cs1 [Compound 61] | – | – | – | – | – | – | – | – | – | – | – | – | AC50 (Mus musculus, Table 12): 5.01 µM; Fit HillSlope (Table 12, curve fit): 1.1705; Fit Zero Activity [%] [1]: −3.94%; Fit Curve Class (Table 12): 2.1; Score [2]: 45
21 | O=C1CCC(C(=O)N2CCSCC2)CN1Cc1ccc(Cl)cc1 (stereo not shown) [drawing 697] | 0.1419 | −0.02657 | 0.2626 | 0.4599 | 0.2652 | 0.222 | – | – | – | – | – | – | –
22 | Cc1nnc(NC(=O)CSc2nnc(CCNC(=O)c3ccccc3F)n2C)s1 [Compound 147] | – | – | – | – | – | – | – | – | – | – | – | – | EC50 (Mus musculus): 11.2 µM; Score (Table 12 compound data): 42; Fit Curve Class (curve class number): 2.1; Fit HillSlope (curve fit): 2.0937; Fit Zero Activity [%] [3]: 1.0531%
23 | Cc1ccc(N2C(=O)C3NN=C(C(=O)OCc4ccccc4)C3C2=O)cc1 (stereo not shown) [drawing 392] | – | – | – | – | – | – | −0.03749 | −0.0238 | −0.168 | −0.2332 | 0.00778 | −0.01262 | –
24 | Nc1ncnc(NCc2ccccc2)c1[N+](=O)[O-] [drawing 486] | – | – | – | – | – | – | 0.008395 | −0.1282 | 0.2507 | −0.3338 | −0.03158 | −0.2067 | –
25 | O=C(N/N=C/c1cn[nH]c1-c1ccc(F)cc1)c1ccncc1 [Compound 128] | – | – | – | – | – | – | – | – | – | – | – | – | EC50 (Mus musculus): 14.1 µM; Score (Table 12 compound data): 43; Fit Curve Class (curve class number): 2.1; Fit HillSlope (curve fit): 4.5045; Fit Zero Activity [%] [3]: 14.6735%
26 | Cc1cc(C)c(/C=C2\C(=O)Nc3ccccc32)[nH]1 [drawing 512] | – | – | – | – | – | – | – | – | – | – | – | – | Results in α7+/− β-galactosidase assay (Myotubes, 0.5 uM): −0.1661; Results in α7+/− β-galactosidase assay (Myotubes, 1 uM): −0.09119; Results in α7+/− β-galactosidase assay (Myotubes, 5 uM): −0.3196; Results in α7+/− β-galactosidase assay (Myotubes, 10 uM): 0.09661; Results in α7+/− β-galactosidase assay (Myotubes, 20 uM): −0.05031; Results in α7+/− β-galactosidase assay (Myotubes, 40 uM): 0.151
